Here are results for ten compounds from PubChem BioAssay (NCI).

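Each compound was tested at five concentrations against cells in 96-well plates for 48 hours. GI50: concentration for 50% inhibition of growth. TGI: total growth inhibition.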 Bounds are passed on as bounds.

Some test systems named below: 786-0 renal; HS 578T breast; HT29 colon; K-562 leukemia; KM12 colon; NCI-H23 lung; OVCAR-8 ovarian; SW-620 colon.
Holding throughout (assay): DTP human tumour cell line panel, 48 h

Turning to `COc1cc2c3c(n(CCCN(C)CCO)c(=O)c2cc1OC)-c1cc2c(cc1C3=O)OCO2`, the GI50 (commonly the concentration at which growth is held to half of that of the control) in the assay with 786-0 renal was 2.92 µM; with HS 578T breast, greater than 61.3 µM; in the assay with HT29 colon, 9.06 µM; in the assay on K-562 leukemia, 0.439 µM; in the assay with KM12 colon, 11.4 µM; with NCI-H23 lung, 0.839 µM. Moreover, the GI50 with OVCAR-8 ovarian was 13.9 µM; in the assay on SW-620 colon it was 0.879 µM. Moreover, the TGI (in general, the concentration at which net growth stops) in the assay with 786-0 renal is greater than 100 µM; with HS 578T breast, greater than 100 µM; in the assay with HT29 colon, greater than 75.2 µM; in the assay with K-562 leukemia, 54.7 µM; in the assay with KM12 colon, 45.7 µM; in the assay on NCI-H23 lung, greater than 24.6 µM. For the same compound, the total growth inhibition concentration (TGI) is greater than 78.8 µM in the assay on OVCAR-8 ovarian and greater than 55.2 µM in the assay on SW-620 colon.
Regarding `N#CC(C#N)=C1CCCOc2c1ccc1ccccc21`, the GI50 is 88.2 µM in the assay on 786-0 renal; 33.4 µM in the assay on HS 578T breast; greater than 100 µM in the assay on HT29 colon; 20.4 µM in the assay on K-562 leukemia; greater than 100 µM in the assay with KM12 colon; greater than 100 µM in the assay with NCI-H23 lung. The GI50 with OVCAR-8 ovarian and with SW-620 colon was greater than 100 µM each time. Further, the TGI with 786-0 renal was greater than 100 µM; with HS 578T breast, greater than 100 µM; in the assay with HT29 colon, greater than 100 µM; in the assay on K-562 leukemia, 43.5 µM; in the assay on KM12 colon, greater than 100 µM; in the assay on NCI-H23 lung, greater than 100 µM. Further, the TGI with OVCAR-8 ovarian and with SW-620 colon was greater than 100 µM throughout.
In the case of `Clc1nc(Cl)c2ncn(Cc3ccccc3Cn3cnc4c(Cl)nc(Cl)nc43)c2n1`, the GI50 was 4.47 µM with 786-0 renal; 2.87 µM in the assay on HS 578T breast; 2.13 µM in the assay on HT29 colon; 2.6 µM with K-562 leukemia; 2.23 µM in the assay on KM12 colon; 5.26 µM with NCI-H23 lung. For the same compound, the GI50 was 2.9 µM in the assay with OVCAR-8 ovarian and 1.67 µM in the assay on SW-620 colon. Also, the TGI in the assay on 786-0 renal turned out to be 9.57 µM; in the assay on HS 578T breast it was 9.39 µM; in the assay with K-562 leukemia, 6.8 µM; with KM12 colon, 5.37 µM; with NCI-H23 lung it was 10.7 µM; with OVCAR-8 ovarian it was 9.12 µM. This compound also registered a concentration for total growth inhibition (TGI) with SW-620 colon of 3.33 µM.
Turning to `CNCCn1c(=O)c2cc(OC)c(OC)cc2c2cnc3cc4c(cc3c21)OCO4`, the GI50 is less than 0.01 µM with 786-0 renal; 1.68 µM in the assay on HS 578T breast; 0.0119 µM in the assay with HT29 colon; 0.0252 µM in the assay on K-562 leukemia; 0.0483 µM with KM12 colon; less than 0.0112 µM in the assay with NCI-H23 lung. The GI50 in the assay with OVCAR-8 ovarian was less than 0.01 µM; with SW-620 colon it was 0.0121 µM. Besides, the concentration for total growth inhibition (TGI) came to 0.0168 µM in the assay with 786-0 renal; 4.44 µM with HS 578T breast; 0.11 µM in the assay with HT29 colon; 2.2 µM in the assay with K-562 leukemia; 1.6 µM in the assay on KM12 colon; 1.33 µM with NCI-H23 lung. The results for the concentration for total growth inhibition (TGI) in the assay with OVCAR-8 ovarian and with SW-620 colon were 1.34 µM and 1.95 µM, respectively.
For the compound `CCOC(=O)c1sc(NC(=O)COc2cccc(/C=C3\CCc4cc(OC)ccc4C3=O)c2)nc1C`, the GI50 with 786-0 renal is 17 µM; in the assay on HS 578T breast, 3.94 µM; in the assay on HT29 colon, 3.71 µM; with K-562 leukemia, 1.94 µM; in the assay on KM12 colon it was 2.3 µM; with NCI-H23 lung, 15.8 µM. The GI50 with OVCAR-8 ovarian is 4.59 µM; in the assay with SW-620 colon, 3.79 µM. Also, the TGI is greater than 100 µM in the assay on 786-0 renal; 49.7 µM in the assay with HS 578T breast; greater than 100 µM in the assay with HT29 colon; 6.26 µM in the assay on K-562 leukemia; 5.12 µM in the assay with KM12 colon; greater than 100 µM in the assay on NCI-H23 lung. The figures for the TGI in the assay on OVCAR-8 ovarian and with SW-620 colon were 25.3 µM and 13.3 µM, respectively.
As to `O=C(Nc1ccc(Cl)cc1)Nc1nccs1`, the GI50 with 786-0 renal is 11.1 µM; with HS 578T breast it was 1.33 µM; with HT29 colon it was 0.511 µM; in the assay with K-562 leukemia it was 0.5 µM; in the assay with KM12 colon it was 0.491 µM; with NCI-H23 lung, 11.5 µM. Moreover, the values for the GI50 with OVCAR-8 ovarian and with SW-620 colon were 3.39 µM and 0.4 µM, respectively. Moreover, the TGI was greater than 100 µM with 786-0 renal; 34.1 µM with HS 578T breast; 27.1 µM in the assay on HT29 colon; greater than 100 µM with K-562 leukemia; 19.4 µM in the assay on KM12 colon; greater than 100 µM in the assay with NCI-H23 lung. Moreover, the TGI in the assay on OVCAR-8 ovarian and with SW-620 colon was greater than 100 µM each time.
Turning to `COc1ccc2c(c1)C(C)Cc1c(ncnc1-n1cnc3ccccc31)N2C` (stereo not drawn), the GI50 in the assay on 786-0 renal is 0.591 µM; with HS 578T breast it was 0.535 µM; in the assay with HT29 colon, 0.336 µM; in the assay on K-562 leukemia, 0.384 µM; in the assay on KM12 colon, 0.444 µM; with NCI-H23 lung, 0.44 µM. The GI50 is 0.959 µM in the assay on OVCAR-8 ovarian and 0.379 µM in the assay on SW-620 colon. Besides, the concentration for total growth inhibition (TGI) in the assay on 786-0 renal was 19.6 µM; in the assay on HS 578T breast it was 37.2 µM; in the assay with HT29 colon, 1.43 µM; with K-562 leukemia, greater than 100 µM; with KM12 colon, 12.1 µM; in the assay on NCI-H23 lung, 18.2 µM. The TGI in the assay on OVCAR-8 ovarian was 87.4 µM; in the assay on SW-620 colon, 17.8 µM.
Take `Cn1c(=S)c2[nH]c(SCCCc3ccccc3)nc2n(C)c1=O`: the total growth inhibition concentration (TGI) in the assay with 786-0 renal, in the assay with HS 578T breast, in the assay on HT29 colon, with K-562 leukemia, with KM12 colon and in the assay with NCI-H23 lung was greater than 100 µM each time. Further, the TGI in the assay with OVCAR-8 ovarian and in the assay with SW-620 colon was greater than 100 µM in each case.
Consider `CNC(C)[C@H]1CCC2C3CC=C4C(=O)[C@@H](NC(=O)C=C(C)C)CC[C@]4(C)C3CC[C@@]21C` (stereo partly drawn), for which the GI50 is 1.56 µM in the assay with 786-0 renal; 1.87 µM in the assay on HS 578T breast; 0.358 µM with HT29 colon; 0.478 µM in the assay with K-562 leukemia; 2.46 µM in the assay with KM12 colon; 2.37 µM in the assay on NCI-H23 lung. In addition, the figures for the GI50 in the assay with OVCAR-8 ovarian and in the assay on SW-620 colon were 3.91 µM and 1.7 µM, respectively. Besides, the TGI in the assay with 786-0 renal worked out at 3.16 µM; in the assay on HS 578T breast, 6.82 µM; in the assay with HT29 colon it was 1.59 µM; in the assay on K-562 leukemia, 2.19 µM; in the assay on KM12 colon, 10.3 µM; in the assay with NCI-H23 lung it was 12.2 µM. The figures for the concentration for total growth inhibition (TGI) with OVCAR-8 ovarian and in the assay with SW-620 colon were 20.2 µM and 4.03 µM, respectively.
Take `CC(=O)NC1CONC1=O` (stereo not drawn): the TGI in the assay on 786-0 renal, with HS 578T breast, with HT29 colon, in the assay on K-562 leukemia, with KM12 colon and with NCI-H23 lung was greater than 100 µM in each case. Moreover, the total growth inhibition concentration (TGI) with OVCAR-8 ovarian and in the assay on SW-620 colon was greater than 100 µM throughout.
